Literature values, collected in patent US10968292B2, “Synthetic polymer film whose surface has microbicidal activity, photocurable resin composition, manufacturing method of synthetic polymer film, and sterilization method with use of surface of synthetic polymer film” (SHARP KABUSHIKI KAISHA, priority 2017, dated 2021).

conditions: monomers; YES/NO

Compound	Water Solubility
polyethylene glycol (400) diacrylate [Example M280]	YES
polyethylene glycol (200) diacrylate [Example M282]	YES

same assay, conditions: organic acids; water at about 20° C. to about 25° C.

Compound	Water Solubility (solubility index)
O=C(O)CCCCCCC(=O)O [Suberic Acid, octanedioic acid]	5 (Slightly soluble • Equal to or greater than 100 mL and less than 1000 mL)
Cc1cc(C)c(C(=O)O)c(C)c1 [TMBA, 2,4,6-trimethylbenzoic acid]	6 (Very slightly soluble • Equal to or greater than 1000 mL and less than 10000 mL)
O=C(O)CCCCCCCCCCC(=O)O [Dodecanedioic Acid, dodecanedioic acid]	7 (Practically insoluble • Not less than 10000 mL)
O=P(O)(O)Oc1ccccc1 [PPA, phenylphosphate]	1 (Very soluble • Less than 1 mL)
